# Results taken from ChEMBL document CHEMBL1201862, “PubChem BioAssay data set” (2004).
# Active and inactive are the calls of the source.
# How the values were obtained:
# [1] = test system: HEK293; test: EBV LMP1 TES2 canonical NF-kB signalling blockers – cell-based, HEK293, luciferase, cherry-pick, dose response (AID 588343); type: functional; settings: Homo sapiens
# [2] = molecular target: Paired box protein Pax-8 (Homo sapiens, UniProt Q06710); test: PAX8 transcriptional activity inhibition in RMG-I – RMG-I cells, luciferase, cherry-pick, dose response (AID 687027); type: functional, cell-based;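 note: luciferase reporter driven by Pax8 target thyroperoxidase promoter measured by SteadyGlo luminescence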
# [3] = molecular target: T1, Heat shock factor protein 1 (Mus musculus, UniProt P38532); test: enhancement of HSF1-driven luciferase signal – cell-based, NIH3T3, luminescence, dose retest, confirmation (AID 435004); type: functional;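 note: stress induced by proteasome inhibitor MG132 added 30 min after compound; luciferase reporter driven by HSF1 response element in NIH3T3 cells; actives raise luminescence as potentiators of the MG132 stress response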
# T1 sequence (P38532 whole entry): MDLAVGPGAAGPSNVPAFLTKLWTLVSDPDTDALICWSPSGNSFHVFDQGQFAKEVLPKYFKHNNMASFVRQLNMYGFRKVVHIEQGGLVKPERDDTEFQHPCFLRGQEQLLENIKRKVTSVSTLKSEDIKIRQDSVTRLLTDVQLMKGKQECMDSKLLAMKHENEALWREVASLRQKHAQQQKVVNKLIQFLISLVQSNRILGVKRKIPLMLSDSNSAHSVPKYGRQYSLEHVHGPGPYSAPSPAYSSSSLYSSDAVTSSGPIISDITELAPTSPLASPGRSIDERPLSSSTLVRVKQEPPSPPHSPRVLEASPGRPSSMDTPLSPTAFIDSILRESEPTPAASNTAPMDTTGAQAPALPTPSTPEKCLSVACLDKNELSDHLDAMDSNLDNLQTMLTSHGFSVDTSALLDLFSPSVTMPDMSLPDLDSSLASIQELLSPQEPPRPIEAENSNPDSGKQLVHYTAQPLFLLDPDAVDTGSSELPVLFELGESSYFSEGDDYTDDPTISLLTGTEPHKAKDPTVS
# [4] = molecular target: T2, Calpain-2 catalytic subunit (Sus scrofa, UniProt P43367); test: m-calpain protease blockers, concentration series – biochemical, fluorogenic peptide substrate, dose response (AID 1420); type: functional
# T2 sequence (P43367 whole entry): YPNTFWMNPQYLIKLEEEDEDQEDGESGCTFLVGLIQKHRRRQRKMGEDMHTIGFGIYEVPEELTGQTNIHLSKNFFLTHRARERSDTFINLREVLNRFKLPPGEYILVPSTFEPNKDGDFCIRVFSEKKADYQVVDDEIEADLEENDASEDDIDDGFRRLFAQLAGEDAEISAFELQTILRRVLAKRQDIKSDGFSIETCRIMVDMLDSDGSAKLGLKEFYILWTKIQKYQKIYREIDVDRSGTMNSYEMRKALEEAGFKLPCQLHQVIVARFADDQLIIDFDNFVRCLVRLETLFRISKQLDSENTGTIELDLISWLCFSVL
# [5] = molecular target: Heat shock protein HSP 90-alpha (Homo sapiens, UniProt P07900); type: functional, organism-based
# [6] = molecular target: Cytochrome P450 2C9 (Homo sapiens, UniProt P11712)
# [7] = molecular target: Cytochrome P450 3A4 (Homo sapiens, UniProt P08684);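 note: CYP3A4 tested as one member of a cytochrome P450 panel screen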
# [8] = test system: SN12K1; test: cells; type: functional; settings: Homo sapiens
# [9] = molecular target: Cytochrome P450 2C19 (Homo sapiens, UniProt P33261); test: Cytochrome panel assay with activity outcomes. Panel member name: p450-cyp2c19 Compounds with AC50 equal or less than 10 uM are considered active; type: functional
# [10] = molecular target: T3, Protein skinhead-1 (Caenorhabditis elegans, UniProt P34707); type: functional
# T3 sequence (P34707 whole entry): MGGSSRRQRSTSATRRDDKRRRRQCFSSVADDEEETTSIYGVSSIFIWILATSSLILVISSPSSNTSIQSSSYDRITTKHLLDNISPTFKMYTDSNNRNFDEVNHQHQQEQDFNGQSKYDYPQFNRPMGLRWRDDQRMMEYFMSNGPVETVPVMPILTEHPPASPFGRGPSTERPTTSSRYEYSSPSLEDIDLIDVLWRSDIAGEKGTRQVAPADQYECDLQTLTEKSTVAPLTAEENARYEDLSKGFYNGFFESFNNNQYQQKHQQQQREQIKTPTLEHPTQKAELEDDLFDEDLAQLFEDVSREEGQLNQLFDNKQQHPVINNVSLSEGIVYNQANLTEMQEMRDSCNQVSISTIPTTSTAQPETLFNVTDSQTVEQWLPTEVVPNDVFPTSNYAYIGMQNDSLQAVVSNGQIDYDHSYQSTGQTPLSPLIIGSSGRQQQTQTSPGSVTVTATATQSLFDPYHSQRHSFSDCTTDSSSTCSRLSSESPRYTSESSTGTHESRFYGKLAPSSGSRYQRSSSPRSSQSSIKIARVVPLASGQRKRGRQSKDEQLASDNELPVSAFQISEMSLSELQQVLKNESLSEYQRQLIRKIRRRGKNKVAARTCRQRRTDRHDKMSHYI
# [11] = molecular target: G-protein coupled receptor 55 (Homo sapiens, UniProt Q9Y2T6); test: inhibition of LPI-stimulated GPR55 beta-arrestin translocation – imaging, U2OS, beta-arrestin-GFP, LPI agonist, primary screen (AID 2013); type: functional;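 note: antagonist potency measured as reduced agonist-driven arrestin aggregation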
# [12] = blockers of HIV-1 envelope-mediated cell-cell fusion – cherry-pick, dose response (AID 652057); type: functional, cell-based
# [13] = test system: HEK293; test: NOD2 signaling inhibitors in MDP-stimulated cells, cell-based, uHTS, luminescence (AID 2001); type: functional; settings: Homo sapiens
# [14] = Luminescence Cell-Based Dose Retest to Confirm Inhibitors of Cancer Stem Cells. [Related pubchem assays (depositor defined):AID2717, AID2721]; type: functional, Homo sapiens; settings: Homo sapiens
# [15] = test system: HEK293; test: cells; type: functional, cell-based; settings: Homo sapiens
# [16] = test system: HEK293; test: cells; type: functional, cell-based; settings: Homo sapiens; remark: listed apart in the source
# [17] = molecular target: Nucleotide-binding oligomerization domain-containing protein 2 (Homo sapiens, UniProt Q9HC29); test: inhibition of NOD2-driven NF-kB reporter – cell-based, luminescence, uHTS, HEK293 (AID 1566); type: functional
# [18] = test system: HEK293; test: inhibition of NOD1-driven NF-kB reporter – cell-based, luminescence, uHTS, primary screen (AID 1578); type: functional; settings: Homo sapiens
# [19] = test system: HEK293; test: cells; type: functional, cell-based; settings: Homo sapiens; remark: listed apart in the source
# [20] = molecular target: Cytochrome P450 2D6 (Homo sapiens, UniProt P10635);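 note: CYP2D6 member of a cytochrome P450 panel assay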
# [21] = molecular target: T4, Replicative DNA helicase DnaB (Mycobacterium tuberculosis, UniProt P9WMR3); test: DnaB intein splicing inhibitors, dose response, biochemical, cell-free fluorescence (AID 449749); type: functional
# T4 sequence (P9WMR3 whole entry): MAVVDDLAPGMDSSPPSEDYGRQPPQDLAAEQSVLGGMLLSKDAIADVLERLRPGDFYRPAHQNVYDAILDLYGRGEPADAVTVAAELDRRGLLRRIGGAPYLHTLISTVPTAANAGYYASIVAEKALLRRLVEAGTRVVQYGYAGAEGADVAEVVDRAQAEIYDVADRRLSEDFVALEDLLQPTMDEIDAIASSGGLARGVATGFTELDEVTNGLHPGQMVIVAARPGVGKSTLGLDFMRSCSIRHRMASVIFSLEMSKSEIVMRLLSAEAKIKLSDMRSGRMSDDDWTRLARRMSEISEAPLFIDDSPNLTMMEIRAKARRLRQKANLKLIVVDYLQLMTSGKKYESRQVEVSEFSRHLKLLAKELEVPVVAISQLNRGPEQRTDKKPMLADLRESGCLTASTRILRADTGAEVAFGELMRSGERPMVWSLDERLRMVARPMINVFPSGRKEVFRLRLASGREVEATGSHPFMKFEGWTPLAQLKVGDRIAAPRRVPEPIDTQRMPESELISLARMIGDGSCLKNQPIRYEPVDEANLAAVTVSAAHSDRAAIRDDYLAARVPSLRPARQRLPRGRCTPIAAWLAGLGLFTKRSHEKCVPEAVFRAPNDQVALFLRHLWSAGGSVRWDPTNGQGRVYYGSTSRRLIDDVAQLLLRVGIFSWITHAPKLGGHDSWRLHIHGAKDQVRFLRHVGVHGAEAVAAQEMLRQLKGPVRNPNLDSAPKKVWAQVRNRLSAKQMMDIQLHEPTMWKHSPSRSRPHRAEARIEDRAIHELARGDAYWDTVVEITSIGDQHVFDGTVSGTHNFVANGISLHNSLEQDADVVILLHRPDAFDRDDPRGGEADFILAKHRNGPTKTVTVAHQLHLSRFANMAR
# [22] = Luminescence Cell-Based Dose Response HTS to Identify Activators of Luciferase Translation or Activity in H4 […] Cells. [Related pubchem assays: 1829 (Project Summary), 1814 (Primary HTS)]; type: functional
# [23] = molecular target: T5, Protein RecA (Mycobacterium tuberculosis, UniProt P9WHJ3); test: Fluorescence Cell-Free Homogeneous Dose Retest to Identify Inhibitors of RecA-Intein Splicing Activity. [Related pubchem assays (depositor defined):AID2097, AID2223, AID489010, AID492950]; type: functional
# T5 sequence (P9WHJ3 whole entry): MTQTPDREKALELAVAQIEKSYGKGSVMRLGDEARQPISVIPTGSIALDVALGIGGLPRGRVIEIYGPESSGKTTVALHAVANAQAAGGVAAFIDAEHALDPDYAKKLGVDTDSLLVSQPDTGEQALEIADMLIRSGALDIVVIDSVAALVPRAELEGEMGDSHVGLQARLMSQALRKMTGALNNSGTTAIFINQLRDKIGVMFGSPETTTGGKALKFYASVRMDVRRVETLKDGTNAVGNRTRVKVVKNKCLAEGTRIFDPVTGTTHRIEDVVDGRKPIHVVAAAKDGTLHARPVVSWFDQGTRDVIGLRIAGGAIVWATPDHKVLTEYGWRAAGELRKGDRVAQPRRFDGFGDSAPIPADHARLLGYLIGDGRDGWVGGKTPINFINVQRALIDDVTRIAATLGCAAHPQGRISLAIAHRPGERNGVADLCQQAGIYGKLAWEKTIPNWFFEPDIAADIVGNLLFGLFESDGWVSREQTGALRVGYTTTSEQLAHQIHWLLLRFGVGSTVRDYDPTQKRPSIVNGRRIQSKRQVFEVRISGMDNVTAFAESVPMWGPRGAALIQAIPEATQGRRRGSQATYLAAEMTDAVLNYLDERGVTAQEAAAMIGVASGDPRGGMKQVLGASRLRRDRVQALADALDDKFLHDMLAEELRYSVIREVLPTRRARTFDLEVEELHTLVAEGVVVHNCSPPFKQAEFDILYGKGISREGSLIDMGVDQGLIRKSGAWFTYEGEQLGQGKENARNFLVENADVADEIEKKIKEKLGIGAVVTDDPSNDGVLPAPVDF
# [24] = NIH3T3 cell viability loss – ATP luminescence, mouse fibroblasts, counter-screen, dose response (AID 2010); type: functional, cell-based;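 note: cells exposed to compound for about 90 hours before reading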
# [25] = Trypanosoma cruzi growth suppression in host cells – NIH3T3 host cells, beta-gal luminescence, confirmation (AID 2044); type: functional, cell-based;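 note: intracellular parasites grown in NIH/3T3 mouse fibroblasts as host cells; luminescent beta-galactosidase reporter signal from transgenic T. cruzi replicating inside host cells; inhibitors lower the luminescence signal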
# Cytochrome P450 2C9, sequence (P11712 whole entry): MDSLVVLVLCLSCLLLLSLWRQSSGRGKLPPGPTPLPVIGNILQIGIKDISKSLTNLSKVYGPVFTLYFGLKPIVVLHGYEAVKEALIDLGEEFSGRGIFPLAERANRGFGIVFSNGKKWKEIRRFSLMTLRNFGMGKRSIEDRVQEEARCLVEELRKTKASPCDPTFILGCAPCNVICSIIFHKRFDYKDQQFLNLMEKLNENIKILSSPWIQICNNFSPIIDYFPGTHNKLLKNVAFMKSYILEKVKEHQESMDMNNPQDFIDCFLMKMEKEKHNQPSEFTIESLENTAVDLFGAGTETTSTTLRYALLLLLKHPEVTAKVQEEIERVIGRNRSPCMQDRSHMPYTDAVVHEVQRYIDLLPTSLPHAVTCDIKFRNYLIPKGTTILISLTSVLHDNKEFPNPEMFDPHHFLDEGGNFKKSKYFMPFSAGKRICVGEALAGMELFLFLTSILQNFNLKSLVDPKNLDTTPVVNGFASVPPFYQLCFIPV
# Cytochrome P450 2D6, sequence (P10635 whole entry): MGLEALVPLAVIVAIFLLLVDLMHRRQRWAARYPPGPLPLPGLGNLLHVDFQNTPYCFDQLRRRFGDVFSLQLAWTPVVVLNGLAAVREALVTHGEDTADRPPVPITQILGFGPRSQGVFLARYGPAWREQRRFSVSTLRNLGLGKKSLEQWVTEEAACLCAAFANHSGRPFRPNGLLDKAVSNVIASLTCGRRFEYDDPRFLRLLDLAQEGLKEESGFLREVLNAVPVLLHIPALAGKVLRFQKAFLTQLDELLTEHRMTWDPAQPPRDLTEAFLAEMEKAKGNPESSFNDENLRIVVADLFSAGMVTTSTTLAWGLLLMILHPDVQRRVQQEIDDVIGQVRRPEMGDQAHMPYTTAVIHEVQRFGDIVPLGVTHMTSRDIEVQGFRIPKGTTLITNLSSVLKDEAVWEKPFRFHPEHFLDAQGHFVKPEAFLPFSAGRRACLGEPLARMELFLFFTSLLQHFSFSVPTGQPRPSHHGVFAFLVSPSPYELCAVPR
# Cytochrome P450 3A4, sequence (P08684 whole entry): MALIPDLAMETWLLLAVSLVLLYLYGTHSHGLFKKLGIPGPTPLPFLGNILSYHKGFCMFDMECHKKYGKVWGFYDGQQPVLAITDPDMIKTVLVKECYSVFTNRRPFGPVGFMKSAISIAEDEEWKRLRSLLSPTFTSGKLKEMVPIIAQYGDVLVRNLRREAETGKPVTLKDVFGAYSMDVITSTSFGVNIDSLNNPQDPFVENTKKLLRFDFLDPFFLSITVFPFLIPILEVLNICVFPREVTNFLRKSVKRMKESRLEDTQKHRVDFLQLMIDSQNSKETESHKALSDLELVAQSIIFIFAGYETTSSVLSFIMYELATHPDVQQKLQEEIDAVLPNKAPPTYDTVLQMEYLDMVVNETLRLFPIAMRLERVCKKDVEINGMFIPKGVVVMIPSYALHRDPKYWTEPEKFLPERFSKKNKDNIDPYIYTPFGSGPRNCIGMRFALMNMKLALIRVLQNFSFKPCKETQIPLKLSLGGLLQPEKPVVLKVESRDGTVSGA
# Cytochrome P450 2C19, sequence (P33261 whole entry): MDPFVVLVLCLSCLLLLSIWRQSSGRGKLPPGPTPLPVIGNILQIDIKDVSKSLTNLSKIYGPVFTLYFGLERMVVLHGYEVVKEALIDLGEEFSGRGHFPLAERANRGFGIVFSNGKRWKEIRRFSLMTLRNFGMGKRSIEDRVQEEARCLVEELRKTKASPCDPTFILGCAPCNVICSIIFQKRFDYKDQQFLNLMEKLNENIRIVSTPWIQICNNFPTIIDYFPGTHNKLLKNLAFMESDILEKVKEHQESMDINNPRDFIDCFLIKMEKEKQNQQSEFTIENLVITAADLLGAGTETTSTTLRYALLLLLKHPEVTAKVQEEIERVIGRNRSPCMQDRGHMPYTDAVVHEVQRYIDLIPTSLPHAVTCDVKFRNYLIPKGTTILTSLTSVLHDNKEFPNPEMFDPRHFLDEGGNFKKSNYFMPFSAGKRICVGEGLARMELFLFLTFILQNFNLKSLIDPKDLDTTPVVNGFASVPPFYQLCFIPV
# Nucleotide-binding oligomerization domain-containing protein 2, sequence (Q9HC29 whole entry, the tested form may be a part): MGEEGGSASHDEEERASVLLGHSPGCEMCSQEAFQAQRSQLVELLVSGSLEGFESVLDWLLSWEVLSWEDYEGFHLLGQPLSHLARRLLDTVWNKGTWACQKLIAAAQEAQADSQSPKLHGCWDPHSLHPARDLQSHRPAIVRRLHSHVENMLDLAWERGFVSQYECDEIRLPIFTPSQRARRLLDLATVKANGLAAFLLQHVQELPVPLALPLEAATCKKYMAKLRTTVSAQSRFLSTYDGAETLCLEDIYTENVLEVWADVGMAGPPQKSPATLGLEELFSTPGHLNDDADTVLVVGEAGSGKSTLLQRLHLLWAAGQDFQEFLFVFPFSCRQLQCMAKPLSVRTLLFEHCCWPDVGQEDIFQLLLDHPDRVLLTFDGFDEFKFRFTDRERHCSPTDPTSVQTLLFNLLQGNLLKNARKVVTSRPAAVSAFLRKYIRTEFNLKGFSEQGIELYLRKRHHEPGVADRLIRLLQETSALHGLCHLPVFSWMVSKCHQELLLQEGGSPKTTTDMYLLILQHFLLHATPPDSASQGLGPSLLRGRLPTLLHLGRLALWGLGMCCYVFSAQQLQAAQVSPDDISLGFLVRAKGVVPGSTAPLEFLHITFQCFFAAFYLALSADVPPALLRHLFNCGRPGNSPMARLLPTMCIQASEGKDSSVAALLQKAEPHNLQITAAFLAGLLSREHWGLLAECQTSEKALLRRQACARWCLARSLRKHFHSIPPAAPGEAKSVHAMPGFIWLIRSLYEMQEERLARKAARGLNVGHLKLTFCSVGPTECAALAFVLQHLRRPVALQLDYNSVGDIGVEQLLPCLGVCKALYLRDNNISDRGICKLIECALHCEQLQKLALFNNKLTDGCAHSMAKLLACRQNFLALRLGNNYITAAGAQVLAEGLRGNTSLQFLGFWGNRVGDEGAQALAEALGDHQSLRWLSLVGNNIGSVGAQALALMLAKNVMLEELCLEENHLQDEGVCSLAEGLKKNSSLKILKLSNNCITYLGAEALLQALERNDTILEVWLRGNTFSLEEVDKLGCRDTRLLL
# Paired box protein Pax-8, sequence (Q06710 whole entry): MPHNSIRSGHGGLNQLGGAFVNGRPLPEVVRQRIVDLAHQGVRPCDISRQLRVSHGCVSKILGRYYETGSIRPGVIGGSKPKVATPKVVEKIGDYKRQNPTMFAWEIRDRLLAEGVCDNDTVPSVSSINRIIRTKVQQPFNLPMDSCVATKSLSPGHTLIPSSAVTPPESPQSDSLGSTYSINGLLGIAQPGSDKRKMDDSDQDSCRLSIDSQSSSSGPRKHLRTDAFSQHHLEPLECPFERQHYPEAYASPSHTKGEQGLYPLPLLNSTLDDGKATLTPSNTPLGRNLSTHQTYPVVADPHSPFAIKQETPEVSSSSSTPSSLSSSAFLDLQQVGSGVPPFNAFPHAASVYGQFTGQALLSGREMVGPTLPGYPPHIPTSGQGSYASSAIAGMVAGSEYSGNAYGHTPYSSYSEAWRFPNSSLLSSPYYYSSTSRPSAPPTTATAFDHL
# G-protein coupled receptor 55, sequence (Q9Y2T6 whole entry, the tested form may be a part): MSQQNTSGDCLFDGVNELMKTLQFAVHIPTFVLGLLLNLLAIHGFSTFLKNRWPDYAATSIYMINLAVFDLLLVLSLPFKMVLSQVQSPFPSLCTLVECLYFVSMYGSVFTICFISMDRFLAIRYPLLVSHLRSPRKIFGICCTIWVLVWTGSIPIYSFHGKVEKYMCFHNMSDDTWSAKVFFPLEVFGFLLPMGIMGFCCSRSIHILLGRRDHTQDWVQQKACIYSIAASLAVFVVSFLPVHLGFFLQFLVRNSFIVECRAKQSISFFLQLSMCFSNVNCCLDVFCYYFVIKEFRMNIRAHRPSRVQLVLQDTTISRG
structure (smiles),measurement,setting,value
Cc1cc(Sc2nnc(N)s2)c2ccccc2n1,AC50,[1],3.03 µM (active)
same,AC50,[2],4.58 µM (active)
same,EC50,[3],14.6 µM (active)
Cc1ccc(C(=O)N2CCN(c3ccccc3Cl)CC2)cc1[N+](=O)[O-],IC50,[4],> 50 µM (not active)
same,AC50,[5],4.18 µM (active)
O=C(c1cccc(C(F)(F)F)c1)N1CCC(O)(CS(=O)(=O)Cc2ccccc2)CC1,AC50,[6],inconclusive
same,AC50,[7],3.16 µM (inconclusive)
C[C@]12CC[C@@H]3c4ccc(OC(=O)N(CCCl)CCCl)cc4CC[C@H]3[C@@H]1CC[C@@H]2O [ESTRAMUSTINE],GI50,[8],0.025 µM (active)
Cc1ccc(CNC(=O)C2CC(c3ccccc3[N+](=O)[O-])=NO2)o1 (configuration not stated),AC50,[6],inconclusive
C#CCCCO/N=C1/[C@H]2O[C@@H]2[C@@H](O)[C@H]2[C@H]1CCn1c(=O)n(Cc3cc4c(cc3Cl)OCO4)c(=O)n12,AC50,[9],inconclusive
same,AC50,[6],inconclusive
CN1/C(=C/C(=O)CSc2ccccc2C(=O)O)C(C)(C)c2ccccc21,IC50,[10],> 100 µM (inactive)
same,IC50,[11],3.44 µM (active)
CCCCNC(=O)C[C@H]1C[C@@]2(C(=O)OC)C(=C[C@H](C(C)(C)C)O[C@@H]2C)N(Cc2ccc3c(c2)OCO3)C1=O,AC50,[12],19.8 µM (active)
Cc1ccc(C(=O)NC(=C(Cl)Cl)S(=O)(=O)c2ccc(C)cc2)cc1,IC50,[13],5.55 µM (active)
same,AC50,[14],4.39 µM (active)
same,IC50,[15],6.28 µM (active)
same,IC50,[16],> 20 µM (inactive)
same,EC50,[17],14.6 µM (active)
same,EC50,[18],2.46 µM (active)
same,IC50,[19],> 20 µM (inactive)
O=C(NCCCN1CCOCC1)C1COc2ccccc2O1 (configuration not stated),AC50,[9]; read-out: AC50,17.8 µM (inconclusive)
same,AC50,[6],inconclusive
same,AC50,[7],14.1 µM (inconclusive)
same,AC50,[20],7.94 µM (inconclusive)
COc1ccc(Nc2cnn(-c3nc4ccccc4s3)c(=O)c2Cl)cc1,AC50,[21],> 380 µM (inactive)
same,EC50,[22],0.198 µM (active)
same,EC50,[23],4.01 µM (active)
same,AC50,[5],3.21 µM (active)
COc1cc(C)nc(N2CCCC(C(=O)Nc3cc(Cl)ccc3OC)C2)n1 (configuration not stated),AC50,[6],inconclusive
O=[N+]([O-])c1ccc(N2CCN(Cc3cccc([N+](=O)[O-])c3)CC2)cc1,AC50,[1],52.6 µM (active)
O=C(Nc1ccc(Cl)c(Cl)c1)Nc1nc(-c2ccccc2)cs1,EC50,[24],> 60 µM (not active)
same,AC50,[1],24.9 µM (active)
same,EC50,[25],1.52 µM (active)
Nc1nc(-c2ccccc2)c(-c2ccccc2)s1,AC50,[6],inconclusive
same,AC50,[20],15.8 µM (inconclusive)
Cc1ccc(NC(=O)CSc2ncnc3ccccc23)cc1S(=O)(=O)N1CCCCC1,IC50,[13],1.73 µM (active)
same,IC50,[15],1.81 µM (active)
same,IC50,[16],> 20 µM (inactive)
same,EC50,[17],4.73 µM (active)
same,EC50,[18],4.43 µM (active)
same,IC50,[19],6.83 µM (active)
